Patent US11203576B2, “Aurora kinase and Janus kinase inhibitors for prevention of graft versus host disease” (H. LEE MOFFITT CANCER CENTER AND RESEARCH INSTITUTE, INC., priority 2016, dated 2021)

Experiments:
[1] = tested on: H3 Ser10 (target of Aurora); test: H3 Ser10 phosphorylation in DC-allostimulated T-cells (flow cytometry); format: cell-based, human; conditions: 5-day allogeneic DC stimulation; AJI 750 nM, alisertib 1.75 μM, TG101348 350 nM
Method: After 5 days, T cells were then harvested and directly fixed (Cytofix, BD Biosciences) for 10 min at 37° C. After washing with phosphate-buffered saline, the T cells were permeabilized with icecold methanol (90%, v/v) for at least 20 min at -20° C. The cells were stained for expression of CD3 and pH[…].

[2] = tested on: 5′ AMP activated protein kinase (AMPK); test: Kinase target screen, panel of 140 kinases; format: biochemical
Method: (§1) Allogeneic mixed leukocyte reactions (alloMLRs) are standard assays used to assess human T cell proliferation against polyclonal or antigen-specific stimuli. In alloMLRs consisting of human T cells and allogeneicmonocyte-derived dendritic cells (DCs), the JAK2 inhibitor TG101348 reduced alloreactive T cell proliferation at concentrations of 350 nM and greater as previously reported (FIG. 9A). […] Synergistic suppression of T cells allostimulated by DCs was achieved when TG101348 and alisertib were added together at a ratio of 1:5, respectively, with a calculated combination index (CI) of <1 using the Chou-Talalay method (FIG. 9A). […] The chemical analogs AJI-214 and AJI-100 were designed and synthesized at the Moffitt Cancer Center and shown to inhibit Aurora kinase A and JAK2 with similar potency. […] Because AJI-100 is tolerated in mouse models, a kinase target screen was performed on AJI-100 to verify its activity against Aurora kinase A and JAK2 among a panel of 140 kinases.

Aurora kinase A = biological target: T1, Aurora kinase A (Homo sapiens, UniProt O14965); test: Kinase target screen, panel of 140 kinases; format: biochemical
T1 sequence (O14965 1-403): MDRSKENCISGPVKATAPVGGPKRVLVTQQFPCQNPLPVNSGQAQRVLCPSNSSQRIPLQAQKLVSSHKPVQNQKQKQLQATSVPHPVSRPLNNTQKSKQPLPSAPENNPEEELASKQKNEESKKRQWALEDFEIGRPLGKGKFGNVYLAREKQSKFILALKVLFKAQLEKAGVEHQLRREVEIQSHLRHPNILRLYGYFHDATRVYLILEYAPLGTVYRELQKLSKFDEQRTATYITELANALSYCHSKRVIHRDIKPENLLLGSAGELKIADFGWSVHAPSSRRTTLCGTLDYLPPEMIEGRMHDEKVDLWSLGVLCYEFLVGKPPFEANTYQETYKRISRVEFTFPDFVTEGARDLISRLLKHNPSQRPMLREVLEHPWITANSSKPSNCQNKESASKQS
Method: as §1

Aurora kinase B = Aurora kinase B (Homo sapiens, UniProt Q96GD4); test: Kinase target screen, panel of 140 kinases; format: biochemical; conditions: compared with alisertib
Method: as §1

Aurora kinase B, sequence (Q96GD4 whole entry): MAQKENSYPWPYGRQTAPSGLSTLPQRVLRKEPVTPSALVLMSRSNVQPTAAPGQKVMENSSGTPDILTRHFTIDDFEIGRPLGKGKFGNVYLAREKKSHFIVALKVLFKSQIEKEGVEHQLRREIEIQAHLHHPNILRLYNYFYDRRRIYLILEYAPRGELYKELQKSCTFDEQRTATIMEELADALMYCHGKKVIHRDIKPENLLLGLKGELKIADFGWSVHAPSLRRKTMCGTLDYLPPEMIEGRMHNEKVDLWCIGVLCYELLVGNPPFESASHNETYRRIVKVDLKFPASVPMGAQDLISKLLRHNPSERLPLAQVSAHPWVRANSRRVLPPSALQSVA

In the case of `NC(=O)c1ccc(Nc2ncc(F)c(Nc3ccccc3)n2)cc1` [bisanilinopyrimidine (II), 5-Fluoro-N4-phenyl-N2-[4-(4-carboxamide)phenyl]pyrimidine-2,4-diamine], the “phosphorylation of histone 3 serine 10 (pH3 Ser10) in T-cells” value [1] is reported as “reducing the phosphorylation”, the “inhibition of AMPK” value [2] is reported as “inhibits” and the “inhibition of Aurora kinase A in kinase panel” value (Aurora kinase A) is reported as “among the top three kinases inhibited”. The “ratio of Aurora kinase A to kinase B inhibition” value (Aurora kinase B) was “greater than alisertib” and the “suppression of Aurora kinase B” value (Aurora kinase B) was “slightly more potent suppression of Aurora kinase B than alisertib”.
